Experimental data reported in patent EP0713704A1, “2-Amino-1,3-thiazines as nitric oxide synthase inhibitors” (HOECHST AKTIENGESELLSCHAFT, priority 1994, dated 1996).
Counter-ions that a name gives are not always drawn.

Columns and labels:
NO-Synthase (iNOS) = biological target: T1, NO-Synthase (iNOS) (Mus musculus, UniProt P29477); assay: NO measurement by oxyhaemoglobin on macrophages (inhibition of NO release, LPS/γIFN-stimulated); type: cell-based, Maus; conditions: Mäusemakrophagen RAW 264.7, stimulated with LPS + γIFN for 4 h, 120 min incubation with test substance; read-out: IC₅₀-Wert
T1 construct: wird die Neusynthese des NO-produzierenden Enzyms NO-Synthase (iNOS) induziert; endogenous in cells; host or cells: RAW 264.7 mouse macrophages stimulated with LPS and γ-interferon
Method: Die Hemmung der NO-Freisetzung durch die Verbindungen der allgemeinen Formel I kann auch durch NO-Messung mittels Oxyhämoglobin auf Makrophagen wie folgt bestimmt werden:
Die subkonfluenten Zellen werden mit dem Zellschaber abgekratzt, in Medium aufgenommen, die Zellzahl bestimmt (Zählung in Trypanblaulösung 0,2 %) und in 24-Napfplatten (1 x 10⁶ Zellen/ml, 1 ml/Napf) ausgesät.
Dazu wird das Kulturmedium von den Zellen abgesaugt und 1 ml/Napf (24-Napfplatte) Inkubationsmedium (MEM ohne Phenolrot (Biochrom F0385)), konditioniert mit 4mM Glutamin, 3,5 g Glukose/l, 3,7 g NaHCO₃/l, 110 mg Natriumpyruvat/l, 50 U/50 µg/ml Pen/Strep und 5 % FKS, aufgegeben. Pro ml Inkubationsmedium werden 1 µl LPS und 1 µl γIFN pipettiert.
Daraus ergeben sich folgende Konzentrationen der Stimulatoren: 140 ng LPS/ml + 5 U γIFN/ml [formula] Während der Stimulation über 4 Stunden wird die Neusynthese des NO-produzierenden Enzyms NO-Synthase (iNOS) induziert. Nach diesem Inkubationszeitraum wird das Inkubationsmedium abgesaugt und jeder Napf zweimal mit frischem Inkubationsmedium gespült. […] Als Kontrolle wird das konditionierte Versuchsmedium nur mit dem Lösungsmittel der Testsubstanz versetzt.
Nach dem Abpipettieren des Versuchsmediums wird die Cytotoxizität der Testsubstanz geprüft (Zellviabilität).

[1] = biological target: induzierbaren NO-Synthase (Homo sapiens, UniProt P35228); assay: NO synthase activity assay: quantification of coproduct 3H-L-citrulline formed from 3H-L-arginine; type: biochemical; conditions: read-out: Restaktivität
From the text: Die erfindungsgemäße Hemmung der NO-Freisetzung durch die Verbindungen der allgemeinen Formel I kann durch einen Aktivitätsassay bestimmt werden, der auf Arbeiten von Bredt und Snyder sowie Schmidt et al. basiert (s. D.S. Bredt und S.S. Snyder, Isolation of nitric oxide synthase, a calmodulin-requiring enzyme, Proc. Natl. Acad. Sci. USA 87 (1990), 682; H.H.H.W.Schmidt et al., Purification of a soluble isoform of guanylyl cyclase-activating factor synthase, Proc. Natl. Acad. Sci. USA 88 (1991), 365). Hierbei wird für gereinigte NO-Synthase (NOS) das bei der NO-Bildung anfallende Coprodukt L-Citrullin quantitativ erfaßt. Dies geschieht durch den Einsatz von ³H-radiomarkiertem L-Arginin als Substrat der Enzymreaktion, das zu ³H-L-Citrullin und NO umgesetzt wird. Nach Beendigung der Enzyminkubation wird […]; die durch Flüssigkeitsszintillationsmessung ermittelte ³H-Aktivität entspricht dann der Menge an L-Citrullin.
• a) Die Substanz ist analog Beispiel 2 erhältlich. Weiße Kristalle vom Schmp. 153 °C. • b) Die pharmakologische Wirkung wurde in dem oben beschriebenen Aktivitätsassy ermittelt, bei dem das von der NO-Synthase als Coprodukt gebildete Citrullin bestimmt wird. Es wurden folgende Hemmungen der induzierbaren NO-Synthase beobachtet: […]

Row | Compound | IC50 (NO-Synthase (iNOS)) [µM] | activity at 1 µM ([1]; Konzentration: 1 µM) [%] | activity at 10 µM ([1]; Konzentration: 10 µM) [%]
1 | NC1=NCCCS1 [Beispiel 1, 2-Amino-5,6-dihydro-4H-1,3-thiazin-Hydrobromid] | 1.3 |  | 
2 | CC1(C)CCSC(N)=N1 [Beispiel 3, 2-Amino-4,4-dimethyl-5,6-dihydro-1,3-thiazin-Hydrochlorid] |  | 15 | 12
